# Patent publication US6194395A, “Cyclodextrin cladribine formulations” (Orthro-McNeil Pharmaceutical, Inc., priority 1999, dated 2001)
# Entries after “also recorded” stand apart in the source; their conditions may differ. Read-outs that look alike come from different tables or passages of the source.
# How the values were obtained:
# [1] = Solubility of cladribine in water at various HPCD concentrations (HPLC); type: physicochemical; details: no HPCD, temperature not stated, read-out: normal solubility of cladribine in water
# [2] = as above; type: physicochemical; details: for solubility at 120 h: pH 7.3
# Procedure: The cylodextrin and the buffer salts were solved in Water for Injection and an excess of Cladribine was added. The solution was shaken during 5 days at room temperature and 4° C. The solution was filtered through a 0.2 μm filter.
# The solubility of cladribine in water at various concentrations of 2-Hydroxypropyl-β-Cyclodextrin (HPCD) was measured by high performance liquid chromatography. […] Table 2 sets forth the results of the solubility measurements for the HPCD/cladribine formulation of Example 1.
# [3] = in words, cited from earlier work
# [4] = Stability of cladribine with/without HPCD at pH 1.4 and 8.2 at room temperature; type: physicochemical
# Procedure: The effect of the HPCD on the stability of cladribine at pH 1.4 and 8.2 at room temperature was measured.
smiles,measurement,setting,value
"Nc1nc(Cl)nc2c1ncn2[C@H]1C[C@H](O)[C@@H](CO)O1 [Cladribine, 2-chloro-2'-deoxyadenosine]",solubility,[1],~4520 µg/mL
same,solubility at 120 h,"[2]; 10% hp-β-cd in buffered water, pH 7.3, 4° C., 10% HP-β-CD (W/W), read-out: Solubility of Cladribine at 4° C.",4.93 mg/mL
same,solubility at 120 h,"[2]; 10% hp-β-cd in buffered water, pH 7.3, RT, 10% HP-β-CD (W/W), read-out: Solubility of Cladribine (mg/ml) at RT",6.4 mg/mL
same,solubility at 120 h,"[2]; 15% hp-β-cd in buffered water, pH 7.3, 4° C., 15% HP-β-CD (W/W), read-out: Solubility of Cladribine at 4° C.",6.51 mg/mL
same,solubility at 120 h,"[2]; 15% hp-β-cd in buffered water, pH 7.3, RT, 15% HP-β-CD (W/W), read-out: Solubility of Cladribine (mg/ml) at RT",8.47 mg/mL
same,solubility at 120 h,"[2]; 20% hp-β-cd in buffered water, pH 7.3, 4° C., 20% HP-β-CD (W/W), read-out: Solubility of Cladribine at 4° C.",8.27 mg/mL
same,solubility at 120 h,"[2]; 20% hp-β-cd in buffered water, pH 7.3, RT, 20% HP-β-CD (W/W), read-out: Solubility of Cladribine (mg/ml) at RT",10.5 mg/mL
same,solubility at 120 h,"[2]; 25% hp-β-cd in buffered water, pH 7.3, 4° C., 25% HP-β-CD (W/W), read-out: Solubility of Cladribine at 4° C.",9.91 mg/mL
same,solubility at 120 h,"[2]; 25% hp-β-cd in buffered water, pH 7.3, RT, 25% HP-β-CD (W/W), read-out: Solubility of Cladribine (mg/ml) at RT",12.4 mg/mL
same,solubility of cladribine in water through use of the cyclodextrin formulation,"[2]; with cyclodextrin, in words",significantly enhanced; also recorded: greatly increased
same,stability in acid,[3]; acidic environment of the gastro-intestinal system,acid labile
same,stability in simple saline solutions,[3]; simple saline,limited stability
same,solubility in water,[3]; water,slightly soluble
same,stability against hydrolysis when combined with cyclodextrins,"[4]; combined with cyclodextrins, in words",significantly more stable
same,stability at lower pH when combined with cyclodextrins like HPCD,"[4]; lower pH, with cyclodextrins like HPCD",significantly more stable
same,stability at pH 1.4,"[4]; pH 1.4, room temperature, with HPCD versus cladribine solution without HPCD (FIG. 1)",significantly enhanced
